Data on seven compounds can be found in paper PMC12368660, “Synergistic Ciprofloxacin-RWn Peptide Therapy Overcomes Drug Resistance in Gram-Negative Bacteria” (ACS Omega, 2025).

Data set [1] relates to human embryonic kidney (HEK293) cells (ATCC CRL-1573). The data set is classed as cell-based. Conditions: 24 h. The protocol: HEK293 cells were cultured in Dulbecco's modified Eagle's medium (DMEM; Gibco, Thermo Fisher Scientific, Waltham, MA) supplemented with 10% (v/v) fetal bovine serum (FBS; Gibco) and 1% penicillin/streptomycin (Gibco) at 37 °C in a humidified atmosphere containing 5% CO2. Cells were seeded in 384-well plates at a density of 5 × 10^3 cells/well and incubated for 24 h. Compounds were then added to the wells at various concentrations. After a further 24 h incubation, resazurin (Sigma-Aldrich) was added to each well to a final concentration of 44 μM. After 4 h of incubation, fluorescence was measured at excitation/emission wavelengths of 560/590 nm using a Tecan […] microplate reader. Cell viability was expressed as a percentage relative to that of untreated control cells. […] All assays were conducted in duplicate (n = 2) across separate assay plates. […]

The conditions of data set [2]: cited from earlier work; for Solubility in 1x DPBS, estimated maximum concentration tested or achieved: pH 7.1. As for the experimental part: Ciprofloxacin (CIP; Sigma-Aldrich, St. Louis, MO) and synthesized peptides were dissolved to prepare stock solutions. […] Solubility Test Results for Synthetic RWn Peptides. Peptide Ultrapure Waterᵃ 1x DPBS (pH 7.1 ± DMSOᵃ Formic Acid ID 0.1)ᵃ (HCOOH)ᵃ RW4 Dissolved (≤10 Dissolved (≤5 mg/mL) Dissolved (≤15 mg/mL) N/A mg/mL) RW4P Dissolved (≤2 Dissolved (≤2 mg/mL) Dissolved (≤10 mg/mL) N/A mg/mL) RW6 Dissolved (≤10 Undissolved Dissolved (≥10 mg/mL) N/A mg/mL) RW6P Dissolved (≤5 Undissolved Dissolved (≥10 mg/mL) N/A mg/mL) RW6-2P Undissolved Undissolved Dissolved (≤2 mg/mL) N/A RW8 Dissolved (≤5 Undissolved Dissolved (≤15 mg/mL) N/A mg/mL) RW8P Undissolved Undissolved Undissolved Dissolved (≤5 mg ...

Data set [3] deals with human umbilical vein endothelial (HUVEC) cells.
Data set [4] deals with human embryonic kidney (HEK293) cells (ATCC CRL-1573). The arrangement: method as in earlier work. As to conditions: cited from earlier work.
Data set [5] concerns human umbilical vein endothelial (HUVEC) cells. Also noted: method as in earlier work. As to conditions: cited from earlier work.

No end group written: not given here.

As to `N=C(N)NCCC[C@H](NC(=O)[C@H](Cc1c[nH]c2ccccc12)NC(=O)[C@H](CCCNC(=N)N)NC(=O)[C@H](Cc1c[nH]c2ccccc12)NC(=O)[C@H](CCCNC(=N)N)NC(=O)[C@H](Cc1c[nH]c2ccccc12)NC(=O)[C@H](CCCNC(=N)N)NC(=O)[C@H](Cc1c[nH]c2ccccc12)NC(=O)[C@H](CCCNC(=N)N)NC(=O)[C@H](Cc1c[nH]c2ccccc12)NC(=O)[C@@H](N)CCCNC(=N)N)C(=O)N[C@@H](Cc1c[nH]c2ccccc12)C(=O)O` [RW6], the “HEK293 (CC50)” value in data set [1] is greater than 32 µg/mL. In data set [2], the “Solubility in DMSO, estimated maximum concentration tested or achieved” value (“Solubility in DMSO” below) is no less than 10000 µg/mL and the “Solubility in ultrapure water, estimated maximum concentration tested or achieved” value (shortened to “Solubility in ultrapure water”) is no more than 10000 µg/mL. The “HUVEC (CC50)” value in data set [3] is greater than 32 µg/mL.
RWRWPRWRW-NH2 [RW4P]: in data set [2], the “Solubility in DMSO” value is no more than 10000 µg/mL; the “Solubility in ultrapure water” value was no more than 2000 µg/mL; the “Solubility in 1x DPBS, estimated maximum concentration tested or achieved” value is no more than 2000 µg/mL.
Take RWRWPRWRWPRWRW-NH2 [RW6–2P]: the “Solubility in DMSO” value in data set [2] was no more than 2000 µg/mL.
Regarding RWRWRWPRWRWRW-NH2 [RW6P], in data set [2], the “Solubility in DMSO” value was no less than 10000 µg/mL and the “Solubility in ultrapure water” value is no more than 5000 µg/mL.
Turning to RWRWRWRW [RW4], in data set [1], the “HEK293 (CC50)” value was greater than 32 µg/mL. In addition, in data set [2], the “Solubility in DMSO” value is no more than 15000 µg/mL; the “Solubility in ultrapure water” value is no more than 10000 µg/mL; the “Solubility in 1x DPBS, estimated maximum concentration tested or achieved” value is no more than 5000 µg/mL. The “HUVEC (CC50)” value in data set [3] is greater than 32 µg/mL. Besides, in data set [4], the “concentration without detectable cytotoxicity, HEK293” value was greater than 32000 ng/mL. Moreover, the “concentration without detectable cytotoxicity, HUVEC” value in data set [5] was greater than 32000 ng/mL.
Regarding RWRWRWRWPRWRWRWRW-NH2 [RW8P], in data set [2], the “Solubility in formic acid (HCOOH), estimated maximum concentration tested or achieved” value was no more than 5000 µg/mL.
In the case of “RWRWRWRWRWRWRWRW [RW8, arginine-tryptophan-rich antimicrobial peptide, 16 AA]”, in data set [2], the “Solubility in DMSO” value was no more than 15000 µg/mL and the “Solubility in ultrapure water” value is no more than 5000 µg/mL.
